Measurements as given in patent US10144761B2, “Chiral specific boron-containing compounds and their use in treating cancer or amyloidosis” (HANLIN SCIENTIFIC, INC., priority 2015, dated 2018).
Where two headings read alike, the source gives them in different places.

What was measured:
MM1.S cells = assay: Cell viability assay (MTS assay); type: cell-based
Description: Cell Viability Assay 1. Cell Line
The multiple myeloma cell line MM1.S was obtained from the ATCC.
Eight thousand MM1.S cells per well were seeded in tissue culture-treated 96-well plate (Nunc) and incubated overnight.
Each well had the same DMSO concentration of 0.05%.
The effects of compounds on cell viability were assessed using CellTiter 96®A Queous One solution Reagent (Promega; G3580).
After being treated with various compounds for 72 hrs, cells in the 96-well plate were centrifuged 1000 rpm for 3 minutes, and 180 ul supernatant were removed from each well. Cells were incubated with 20 ul CellTiter 96®A Queous One solution Reagent and put into incubator with 5% CO2. at 37° C. for an additional 4 hrs. The absorbance was measured at 490 nm with Automatic Microplate reader (Infinite M1000 pro, Tecan). […] Four sets of experiments for each drug combinations were carried out. Cell viability (Percentage of Cell Survival) was calculated by the following formula: cell viability (%)=(average absorbance of treated group-average absorbance of blank)/(average absorbance of untreated group−average absorbance of blank)×100%. IC50 values were calculated using Prism software.

[1] = Stability study (three storage/solution conditions, by RP-HPLC); type: physicochemical; parameters: key to Stability, Room Temp Dry / Stability, 30° C./65% Humidity / Stability, 37° C. H2O/pH 7.4: “+” meaning stable; “−” meaning quickly degradable; details: for Stability, Room Temp Dry: room temperature (20° C.) under inert dry gas, determined by RP-HPLC; for Stability, 30° C./65% Humidity: sealed with double bags in stability chamber
Description: Compounds were tested for their stability, under three different conditions (see Table 2), by the following procedures: • 1. Room Temperature and Dry: compounds were left at the room temperature (20° C.) under inert dry gas; • 2. 30° C. and 65% Humidity: compounds sealed with double bags were put into a stability chamber. Temperature was set at 30° C. while the humidity was controlled at 65%. • 3. 37° C. pH=7.4 solution: compounds were dissolved in PBS solution and then the entire solution was submerged under a 37° C. water bath.

[2] = MM1.S cells, 72 hrs treatment, MTS assay
[3] = MM1.S cells, 72 hrs treatment, MTS assay, n=4, read-out: IC50
[4] = dissolved in PBS solution, 37° C. water bath, RP-HPLC
[5] = Homo sapiens, MM1.S, 72 h, MM1.S cells, 72 hrs treatment, MTS assay, n=4, read-out: IC50

CC(C)C[C@H](NC(=O)[C@H](Cc1ccccc1)NC(=O)c1cnccn1)B(O)O [Bortezomib, reference compound]
Cytotoxic effects on MM1.S cells (in words) (MM1.S cells; [2]): strong cytotoxic effects | IC50 (MM1.S cells; [3]): 1.76 nM

CC(C)C[C@H](NC(=O)[C@H](Cc1ccccc1)NC(=O)c1cnccn1)B(O)O [HL01-0, [(1R)-3-methyl-1-[[(2S)-1-oxo-3-phenyl-2[(pyrazinylcarbonyl)amino]propyl]amino]butyl] boronic acid, reference compound]
Stability, Room Temp Dry [1]: −

CC(C)C[C@H](NC(=O)[C@H](Cc1ccccc1)NC(=O)c1cnccn1)[B-]12OC(=O)C[N+]1(C)CC(=O)O2 (stereo partly drawn) [HL01-11]
Stability, 37° C. H2O/pH 7.4 [1, 4]: + | Stability, Room Temp Dry [1]: + | Stability, 30° C./65% Humidity ([1]; RP-HPLC): + | IC50 (MM1.S cells; [5]): ~2 nM | Cytotoxic effects on MM1.S cells (in words) (MM1.S cells; [2]): strong cytotoxic effects | IC50 (MM1.S cells; [3]): 1.62 nM

CC(C)C[C@H](NC(=O)CNC(=O)c1cc(Cl)ccc1Cl)[B-]12OC(=O)C[N+]1(C)CC(=O)O2 (stereo partly drawn) [HL01-15]
Stability, 37° C. H2O/pH 7.4 [1, 4]: + | Stability, Room Temp Dry [1]: + | Stability, 30° C./65% Humidity ([1]; RP-HPLC): + | IC50 (MM1.S cells; Homo sapiens, MM1.S, 72 h): 6.85 nM | Cytotoxic effects on MM1.S cells (in words) (MM1.S cells; [2]): weaker than the other compounds

CC(C)C[C@H](NC(=O)CNC(=O)c1cc(Cl)ccc1Cl)B(O)O [HL01-17]
Stability, 37° C. H2O/pH 7.4 (result in words) [1, 4]: Decompose Instant | Stability, Room Temp Dry [1]: + | Stability, 30° C./65% Humidity ([1]; RP-HPLC): − | IC50 (MM1.S cells; [5]): 9.45 nM
